Results as given in ChEMBL document CHEMBL1128849, “Synthesis and antibacterial activity of men 10700, a new penem antibiotic” (1995).
In brackets after ≈: the same amount, converted by molar mass.

Key:
Proteus mirabilis = test: In vitro antibacterial activity against Proteus mirabilis; assay type: functional
Streptococcus pneumoniae = test: In vitro antibacterial activity against Streptococcus pneumoniae; assay type: functional
Escherichia coli [1] = test: In vitro antibacterial activity against Escherichia. coli SHV; assay type: functional
Providencia rettgeri = test: In vitro antibacterial activity against Providencia rettgerii; assay type: functional
Aeromonas sp. = test: In vitro antibacterial activity against Aeromonas species.; assay type: functional
[2] = system: Stenotrophomonas maltophilia; test: In vitro antibacterial activity against Xanthomonas maltophilia; assay type: functional
Escherichia coli [3] = test: In vitro antibacterial activity against Escherichia. coli L; assay type: functional
Staphylococcus aureus [4] = test: In vitro antibacterial activity against Staphylococcus aureus MR; assay type: functional
Streptococcus pyogenes = test: In vitro antibacterial activity against Streptococcus pyogenes A; assay type: functional
Pseudomonas aeruginosa [5] = test: In vitro antibacterial activity against Pseudomonas aeruginosa VR5; assay type: functional
Enterococcus faecalis [6] = test: In vitro antibacterial activity against Enterococcus faecalis ATCC 29212; assay type: functional
Klebsiella aerogenes = test: In vitro antibacterial activity against Enterobacter aerogenes; assay type: functional
Escherichia coli [7] = test: In vitro antibacterial activity against Escherichia. coli TEM2; assay type: functional
Proteus vulgaris = test: In vitro antibacterial activity against Proteus vulgaris; assay type: functional
Citrobacter freundii = test: In vitro antibacterial activity against Citrobacter freundii; assay type: functional
Escherichia coli [8] = test: In vitro antibacterial activity against Escherichia. coli ATCC 25922; assay type: functional
Morganella morganii = test: In vitro antibacterial activity against Morganella morganii; assay type: functional
Escherichia coli [9] = test: In vitro antibacterial activity against Escherichia. coli DC2; assay type: functional
Klebsiella pneumoniae = test: In vitro antibacterial activity against Klebsiella pneumoniae; assay type: functional
Staphylococcus aureus [10] = test: In vitro antibacterial activity against Staphylococcus aureus ATCC 25923; assay type: functional
Staphylococcus aureus [11] = test: In vitro antibacterial activity against Staphylococcus aureus MR13; assay type: functional
[12] = system: Staphylococcus epidermidis; test: In vitro antibacterial activity against Staphylococcus epidermidis; assay type: functional
Streptococcus agalactiae = test: In vitro antibacterial activity against Streptococcus agalactiae B; assay type: functional
Moraxella catarrhalis = test: In vitro antibacterial activity against Branhamella catarrhalis; assay type: functional
Staphylococcus aureus [13] = test: In vitro antibacterial activity against Staphylococcus aureus ATCC 29213; assay type: functional
Escherichia coli [14] = test: In vitro antibacterial activity against Escherichia coli; assay type: functional
Listeria monocytogenes = test: In vitro antibacterial activity against Listeria monocytogenes; assay type: functional
Staphylococcus aureus [15] = test: In vitro antibacterial activity against Staphylococcus aureus MS; assay type: functional
[16] = system: Acinetobacter calcoaceticus subsp. anitratus; test: In vitro antibacterial activity against Acinetobacter anitratus; assay type: functional
Staphylococcus aureus [17] = test: In vitro antibacterial activity against Staphylococcus aureus MR09; assay type: functional
Providencia stuartii = test: In vitro antibacterial activity against Providencia stuartii; assay type: functional
Yersinia sp. = test: In vitro antibacterial activity against Yersinia species; assay type: functional, yersinia spp; conditions: Yersinia sp. (in: enterobacteria)
Pseudomonas aeruginosa [18] = test: In vitro antibacterial activity against Pseudomonas aeruginosa G242; assay type: functional
Pseudomonas aeruginosa [19] = test: In vitro antibacterial activity against Pseudomonas aeruginosa ATCC 27853; assay type: functional
Pseudomonas aeruginosa [20] = test: In vitro antibacterial activity against Pseudomonas aeruginosa; assay type: functional
Escherichia coli [21] = test: In vitro antibacterial activity against Escherichia. coli TEM1; assay type: functional
Haemophilus influenzae = test: In vitro antibacterial activity against Haemophilus influenzae; assay type: functional
Enterococcus faecalis [22] = test: In vitro antibacterial activity against Enterococcus faecalis; assay type: functional
Enterococcus faecium = test: In vitro antibacterial activity against Enterococcus faecium; assay type: functional
Bacteroides fragilis = test: In vitro antibacterial activity against Bacteroides fragilis; assay type: functional
Clostridium perfringens = test: In vitro antibacterial activity against Clostridium perfringens; assay type: functional

In the case of `C[C@@H](O)[C@H]1C(=O)N2C(C(=O)O)=C(CN(C)CC(N)=O)SC12` (stereo partly drawn), the MIC90 (Proteus mirabilis) is reported as 1 µg/mL (≈ 3.17 µM), the MIC90 (Streptococcus pneumoniae) is reported as 0.06 µg/mL (≈ 0.19 µM) and the MIC (Escherichia coli [1]) is reported as 0.5 µg/mL (≈ 1.59 µM). The MIC90 (Providencia rettgeri) was 2 µg/mL (≈ 6.34 µM), the MIC90 (Aeromonas sp.) was 1 µg/mL (≈ 3.17 µM) and the MIC90 [2] was over 64 µg/mL. For the same molecule, the MIC (Escherichia coli [3]) was 0.25 µg/mL (≈ 0.793 µM), the MIC90 (Staphylococcus aureus [4]) was 4 µg/mL (≈ 12.7 µM) and the MIC90 (Streptococcus pyogenes) was 0.06 µg/mL (≈ 0.19 µM). The MIC (Pseudomonas aeruginosa [5]) was 0.5 µg/mL (≈ 1.59 µM), the MIC (Enterococcus faecalis [6]) was 4 µg/mL (≈ 12.7 µM) and the MIC90 (Klebsiella aerogenes) was 2 µg/mL (≈ 6.34 µM). It also gave an MIC (Escherichia coli [7]) of 0.5 µg/mL (≈ 1.59 µM), an MIC90 (Proteus vulgaris) of 2 µg/mL (≈ 6.34 µM) and an MIC90 (Citrobacter freundii) of 1 µg/mL (≈ 3.17 µM). For the same molecule, the MIC (Escherichia coli [8]) was 0.25 µg/mL (≈ 0.793 µM), the MIC90 (Morganella morganii) was 2 µg/mL (≈ 6.34 µM) and the MIC (Escherichia coli [9]) was 0.25 µg/mL (≈ 0.793 µM). For the same molecule, the MIC90 (Klebsiella pneumoniae) was 0.5 µg/mL (≈ 1.59 µM), the MIC (Staphylococcus aureus [10]) was under 0.03 µg/mL and the MIC (Staphylococcus aureus [11]) was 0.06 µg/mL (≈ 0.19 µM). The MIC90 [12] was 0.015 µg/mL (≈ 0.0476 µM), the MIC90 (Streptococcus agalactiae) was 0.06 µg/mL (≈ 0.19 µM) and the MIC90 (Moraxella catarrhalis) was 0.25 µg/mL (≈ 0.793 µM). The MIC (Staphylococcus aureus [13]) was 0.06 µg/mL (≈ 0.19 µM), the MIC90 (Escherichia coli [14]) was 0.25 µg/mL (≈ 0.793 µM) and the MIC90 (Listeria monocytogenes) was 0.5 µg/mL (≈ 1.59 µM). For the same molecule, the MIC90 (Staphylococcus aureus [15]) was 0.0075 µg/mL (≈ 0.0238 µM), the MIC90 [16] was 16 µg/mL (≈ 50.7 µM) and the MIC (Staphylococcus aureus [17]) was 1 µg/mL (≈ 3.17 µM). The MIC90 (Providencia stuartii) was 2 µg/mL (≈ 6.34 µM), the MIC90 (Yersinia sp.) was 0.5 µg/mL (≈ 1.59 µM) and the MIC (Pseudomonas aeruginosa [18]) was 4 µg/mL (≈ 12.7 µM). It also gave an MIC (Pseudomonas aeruginosa [19]) of over 32 µg/mL, an MIC90 (Pseudomonas aeruginosa [20]) of over 64 µg/mL and an MIC (Escherichia coli [21]) of 0.25 µg/mL (≈ 0.793 µM). It also gave an MIC90 (Haemophilus influenzae) of 2 µg/mL (≈ 6.34 µM), an MIC90 (Enterococcus faecalis [22]) of 8 µg/mL (≈ 25.4 µM) and an MIC90 (Enterococcus faecium) of over 64 µg/mL. The MIC90 (Bacteroides fragilis) was 2 µg/mL (≈ 6.34 µM) and the MIC90 (Clostridium perfringens) was 0.5 µg/mL (≈ 1.59 µM).
Molecule `C[C@@H](O)[C@H]1C(=O)N2C(C(=O)O)=C(CSC(=S)N(C)CC(N)=O)SC12` (stereo partly drawn) has an MIC (Escherichia coli [1]) of 16 µg/mL (≈ 40.9 µM), an MIC (Escherichia coli [3]) of 16 µg/mL (≈ 40.9 µM) and an MIC (Pseudomonas aeruginosa [5]) of 4 µg/mL (≈ 10.2 µM). The MIC (Enterococcus faecalis [6]) was 8 µg/mL (≈ 20.4 µM), the MIC (Escherichia coli [7]) was 8 µg/mL (≈ 20.4 µM) and the MIC (Escherichia coli [8]) was 8 µg/mL (≈ 20.4 µM). It also gave an MIC (Escherichia coli [9]) of 0.5 µg/mL (≈ 1.28 µM), an MIC (Staphylococcus aureus [10]) of 0.12 µg/mL (≈ 0.307 µM) and an MIC (Staphylococcus aureus [11]) of 0.03 µg/mL (≈ 0.0766 µM). It also gave an MIC (Staphylococcus aureus [13]) of 0.12 µg/mL (≈ 0.307 µM), an MIC (Staphylococcus aureus [17]) of 2 µg/mL (≈ 5.11 µM) and an MIC (Pseudomonas aeruginosa [18]) of 8 µg/mL (≈ 20.4 µM). The MIC (Pseudomonas aeruginosa [19]) was over 32 µg/mL and the MIC (Escherichia coli [21]) was 8 µg/mL (≈ 20.4 µM).
`C[C@@H](O)[C@H]1C(=O)N2C(C(=O)O)=C(CN(C)CC(=O)N(C)C)SC12` (stereo partly drawn) gave an MIC (Escherichia coli [1]) of 1 µg/mL (≈ 2.91 µM), an MIC (Escherichia coli [3]) of 0.5 µg/mL (≈ 1.46 µM) and an MIC (Pseudomonas aeruginosa [5]) of 4 µg/mL (≈ 11.6 µM). It also gave an MIC (Enterococcus faecalis [6]) of 8 µg/mL (≈ 23.3 µM), an MIC (Escherichia coli [7]) of 1 µg/mL (≈ 2.91 µM) and an MIC (Escherichia coli [8]) of 0.5 µg/mL (≈ 1.46 µM). For the same molecule, the MIC (Escherichia coli [9]) was 1 µg/mL (≈ 2.91 µM), the MIC (Staphylococcus aureus [10]) was 0.12 µg/mL (≈ 0.349 µM) and the MIC (Staphylococcus aureus [11]) was 0.25 µg/mL (≈ 0.728 µM). For the same molecule, the MIC (Staphylococcus aureus [13]) was 0.25 µg/mL (≈ 0.728 µM), the MIC (Staphylococcus aureus [17]) was 4 µg/mL (≈ 11.6 µM) and the MIC (Pseudomonas aeruginosa [18]) was 0.5 µg/mL (≈ 1.46 µM). The MIC (Pseudomonas aeruginosa [19]) was over 32 µg/mL and the MIC (Escherichia coli [21]) was 1 µg/mL (≈ 2.91 µM).
Work on `CCCCOC(=O)CN(C)CC1=C(C(=O)O)N2C(=O)[C@H]([C@@H](C)O)C2S1` (stereo partly drawn) yielded an MIC (Escherichia coli [1]) of over 32 µg/mL, an MIC (Escherichia coli [3]) of over 32 µg/mL and an MIC (Pseudomonas aeruginosa [5]) of over 32 µg/mL. For the same molecule, the MIC (Enterococcus faecalis [6]) was 8 µg/mL (≈ 21.5 µM), the MIC (Escherichia coli [7]) was over 32 µg/mL and the MIC (Escherichia coli [8]) was 32 µg/mL (≈ 85.9 µM). For the same molecule, the MIC (Escherichia coli [9]) was 1 µg/mL (≈ 2.68 µM), the MIC (Staphylococcus aureus [10]) was 0.25 µg/mL (≈ 0.671 µM) and the MIC (Staphylococcus aureus [11]) was 0.5 µg/mL (≈ 1.34 µM). The MIC (Staphylococcus aureus [13]) was 0.5 µg/mL (≈ 1.34 µM), the MIC (Staphylococcus aureus [17]) was 16 µg/mL (≈ 43 µM) and the MIC (Pseudomonas aeruginosa [18]) was over 32 µg/mL. For the same molecule, the MIC (Pseudomonas aeruginosa [19]) was over 32 µg/mL and the MIC (Escherichia coli [21]) was over 32 µg/mL.
